# Measured values taken from publication PMC12040169 (PLOS Biology, 2025).
# Test: in vitro
# Details: human, hela cells, % viability
row,SMILES,"viability at 28.5 h, 10 µM"
1,CC(C)(C)OC(=O)N1CCCC(NC(CO)c2ccco2)CC1 (centres unmarked) [CBK304049],101%
2,N#CCCN(Cc1ccco1)C(=O)c1ccc(OCC2CC2)cc1 [CBK304051],85%
3,Cc1nc(CN(C)C2CCN(Cc3ccc4c(c3)CCC4)C2)no1 (centres unmarked) [CBK304052],76.5%
4,Cc1c(C(C)NCC2CCN(C)CC2)cnn1-c1ccc(C#N)cc1 (centres unmarked) [CBK304058],97.3%
5,O=C(Cn1cnc(NCc2cscn2)n1)N1CCCCCC1 [CBK304061],98%
6,Cc1c(C(C)NCCc2nnc[nH]2)cnn1-c1ccc(C#N)cc1 (centres unmarked) [CBK304063],98.1%
7,CCc1nc2ccccc2n1CC(=O)N(Cc1cccnc1)C1CC1 [CBK304064],107%
8,CC(Oc1ccc(C#N)cc1)C(=O)NCC(C)(C)N1CCOCC1 (centres unmarked) [CBK304066],90%
9,Cc1nc(CN2CCCC(NCc3cccc4ccccc34)C2)no1 (centres unmarked) [CBK304068],71.4%
10,Cc1nnc(N2CCN(Cc3sccc3Cl)CC2)nc1C [CBK304075],93.7%
11,Cc1ccc(C#N)c(NCc2ccccc2CN2CCCC2CO)n1 (centres unmarked) [CBK304076],75.5%
12,N#Cc1ccc(NCc2ccccc2CN2CCCC2CO)cn1 (centres unmarked) [CBK304077],97.9%
13,Cc1nnc(CN2CCOc3ccc(Br)cc3C2)o1 [CBK304079],99%
14,CCOC(=O)c1csc(C2CCCN2C(=O)c2ccoc2C)n1 (centres unmarked) [CBK304080],109%
15,Cc1nc(CCNC(=O)c2cc(C(C)C)n(C(C)(C)C)n2)cs1 [CBK304082],89.2%
16,CNC(=O)c1ccc(CN(Cc2noc(C(C)C)n2)C2CC2)cc1 [CBK304084],83%
17,Cn1cc(C2C[S+]([O-])CCN2Cc2csc3ccccc23)cn1 (centres unmarked) [CBK304085],103%
18,CNS(=O)(=O)c1cccc(C(C)NC(=O)N2CCC(COC)CC2)c1 (centres unmarked) [CBK304087],90.4%
19,CC(C)c1ccc(C(=O)NC2CCN(CC(F)(F)F)C2=O)nc1 (centres unmarked) [CBK304089],108%
20,COCCN(C(=O)c1nc2cccnc2s1)C1CCS(=O)(=O)C1 (centres unmarked) [CBK304091],97%
21,COCCc1noc(CC2CCN(c3ccc(C#N)nc3)CC2)n1 [CBK304094],89.9%
22,Cc1csc2c(N3CCC(OCCN4CCCC4)CC3)ncnc12 [CBK304095],84%
23,CCN(CC1CCN(c2ccccn2)CC1)C(=O)C1(C#N)CCCC1 [CBK304096],98.7%

row,SMILES,"viability at 28.5 h, 10 µM"
1,CCOC(=O)C(NC(=O)c1cn(C)cn1)c1cccc(C)c1C (centres unmarked) [CBK304098],107%
2,CCOC(=O)C1CCCN(C(=O)Cn2ccc3sccc3c2=O)C1 (centres unmarked) [CBK304099],100%
3,Cc1cccc(OCC(C)NC(=O)N2CCCC2c2cnn(C)c2)c1 (centres unmarked) [CBK304100],91.6%
4,Cc1ccc(CS(=O)(=O)N(CCO)C2CCC2)c(F)c1 [CBK304101],82.2%
5,Cc1nnc(CS(=O)(=O)Cc2csc(C(C)C)n2)n1C1CC1 [CBK304106],101%
6,CC(C)(C)n1cc(C(=O)N2CCNCC2c2cccc(Cl)c2)cn1 (centres unmarked) [CBK304112],96.9%
7,Cc1cc(C)n(CC(=O)N2CCNCC2c2cccc(Cl)c2)n1 (centres unmarked) [CBK304116],92.7%
8,CCc1n[nH]c(C2CN(Cc3nc4c(F)cccc4[nH]3)CCO2)n1 (centres unmarked) [CBK304117],90.9%
9,O=C(c1cnc(-c2ccncc2)s1)N(CC(F)(F)F)C1CCC1 [CBK304119],84.1%
10,Cc1ncccc1-c1csc(C2CCCO2)n1 (centres unmarked) [CBK304121],117%
11,CC1CNCCN1C(=O)c1ccnc(N2CCN(C)CC2)c1 (centres unmarked) [CBK304122],88.6%
12,CCOC(=O)c1csc(C2CCCN2C(=O)c2ccsc2)n1 (centres unmarked) [CBK304125],77.5%
13,Cc1cnc(NC(=O)N2CCOC(c3ccc(F)cc3F)C2)s1 (centres unmarked) [CBK304126],88.5%
14,CC(C(=O)N(CCC#N)Cc1cccnc1)n1cnc2ccccc21 (centres unmarked) [CBK304127],92.5%
15,CC(C)c1nc(C2CCCN(c3ncc(C#N)cc3Cl)C2)no1 (centres unmarked) [CBK304128],111%
16,CCn1cc(C2CN(S(=O)(=O)Cc3ccccc3)CCO2)cn1 (centres unmarked) [CBK304129],106%
17,CCOC(=O)C(NC(=O)c1cc[nH]n1)c1cccc(C)c1C (centres unmarked) [CBK304131],85.5%
18,CCc1nnc(CN(C)Cc2c(C)nn(C)c2Cl)o1 [CBK304132],90.5%
19,Cc1nc(C)n(CC2CCCN(Cc3cc(=O)n4ccccc4n3)C2)n1 (centres unmarked) [CBK304135],88.5%
20,Cc1ccc(Cc2cnc(NC(=O)NC3CCOC(C)(C)C3)s2)cc1F (centres unmarked) [CBK304139],92.2%
21,Cc1csc(CCNCc2c(C(C)C)nn(C)c2N(C)C)n1 [CBK304140],89%
22,CCOc1cc(NC2CCN(C(=O)CC3(O)CCCCC3)CC2)ncn1 [CBK304141],81.6%
23,CCCC1CCCN(Cc2nnnn2-c2ccc(S(C)(=O)=O)cc2)C1 (centres unmarked) [CBK304142],89.2%

row,SMILES,"viability at 28.5 h, 10 µM"
1,NC(=O)c1ccc(C(=O)NCC2CN3CCCN2CC3)cc1 (centres unmarked) [CBK304143],114%
2,CCc1ccc(C(O)CNC2CCN(CC(F)F)CC2)cc1 (centres unmarked) [CBK304144],109%
3,c1ccc(C(Nc2cnccn2)C2CC2)cc1 (centres unmarked) [CBK304145],106%
4,Cc1nnc(CN(CC2CCCO2)C2CCCC2)n1C1CC1 (centres unmarked) [CBK304147],95.5%
5,CCOC(=O)CN1CCCN(c2c(F)cc(C#N)cc2F)CC1 [CBK304148],86.9%
6,CCCc1occc1C(=O)N1CCOCC1C(=O)O (centres unmarked) [CBK304151],97.9%
7,CC(Cc1nc(-c2ccnn2C)cs1)n1cc(Cl)cn1 (centres unmarked) [CBK304152],96.6%
8,COCCc1noc(CC2CCN(c3ncc(C#N)cc3F)CC2)n1 [CBK304153],115%
9,CN(Cc1nncn1C)C(=O)c1cnc2c(c1)c(C(C)(C)C)nn2C [CBK304154],85.4%
10,Cn1cc(CNCC2CCN(c3ccccc3)C2)c(-c2cccnc2)n1 (centres unmarked) [CBK304155],95.7%
11,CCC(=O)N(C)C(CO)c1cc(OC)ccc1Br (centres unmarked) [CBK304156],95.9%
12,CC(=O)Nc1ccc(NCc2csc(C3CCCO3)n2)c(C(F)(F)F)c1 (centres unmarked) [CBK304161],101%
13,COc1ccc(C)cc1C1(CNC(=O)C2CC(O)CN2)CCOCC1 (centres unmarked) [CBK304162],92%
14,Cc1ccccc1NC(=O)Cc1nc(CN2CCC3(CCOC3)C2)cs1 (centres unmarked) [CBK304164],95.5%
15,CC(C)(O)C(=O)NCc1nc2c(s1)CC(c1ccccc1)CC2 (centres unmarked) [CBK304165],77.3%
16,Cc1cnn(C2CCCN(C(=O)CCCc3cccs3)C2)c1 (centres unmarked) [CBK304168],96.3%
17,CCOC(=O)CN1CC(O)CC1c1cccc(C(F)(F)F)c1 (centres unmarked) [CBK304169],97.9%
18,Cc1nn(C)c(C)c1CN1CCOC(c2nc(C(C)(C)C)cs2)C1 (centres unmarked) [CBK304170],85.6%
19,COCCc1noc(CC2CCN(c3ncc(Cl)cn3)CC2)n1 [CBK304172],88.7%
20,CCn1ncnc1CN(c1cccc(CO)c1)C1Cc2ccccc2C1 [CBK304173],111%
21,CCOC(=O)C(NC(=O)c1cn[nH]c1)c1cccc(C)c1C (centres unmarked) [CBK304175],92.8%
22,CCc1nn(C)cc1CNC1CCCN(c2ccc(C#N)cc2)C1=O (centres unmarked) [CBK304176],96.4%
